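A five-concentration, 48-hour dose response in 96-well plates underlies each endpoint, interpolated linearly between surrounding concentrations. TGI denotes the concentration required for complete inhibition of growth.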
Experiments:
Assay in all cases: DTP human tumour cell line panel, 48 h
[1] = system: LXFL 529 NSCLC
[2] = system: XF 498 CNS
[3] = system: 786-0 renal
[4] = system: HT29 colon
[5] = system: IGROV1 ovarian
[6] = system: UO-31 renal
[7] = system: MOLT-4 leukemia
[8] = system: SNB-78 CNS
[9] = system: SK-MEL-5 melanoma
[10] = system: HL-60(TB) leukemia
[11] = system: KM20L2 colon
[12] = system: SNB-19 CNS
[13] = system: TK-10 renal
[14] = system: SF-539 CNS
[15] = system: DLD-1 colon
[16] = system: UACC-257 melanoma
[17] = system: A498 renal
[18] = system: NCI-H522 lung
[19] = system: DMS 273 small cell lung
[20] = system: OVCAR-5 ovarian
[21] = system: M19-MEL melanoma
[22] = system: SN12C renal
[23] = system: UACC-62 melanoma
[24] = system: SF-295 CNS
[25] = system: OVCAR-8 ovarian
[26] = system: DMS 114 small cell lung
[27] = system: SK-MEL-28 melanoma
[28] = system: COLO 205 colon
[29] = system: KM12 colon
[30] = system: HCC-2998 colon
[31] = system: U251 CNS
[32] = system: SK-MEL-2 melanoma
[33] = system: ACHN renal
[34] = system: CCRF-CEM leukemia
[35] = system: K-562 leukemia
[36] = system: MALME-3M melanoma
[37] = system: M14 melanoma
[38] = system: SNB-75 CNS
[39] = system: SF-268 CNS
[40] = system: RXF-631 renal
[41] = system: CAKI-1 renal
[42] = system: NCI-H23 lung
[43] = system: A549 NSCLC
[44] = system: NCI-H460 lung
[45] = system: SK-OV-3 ovarian
[46] = system: HOP-18 NSCLC
[47] = system: OVCAR-4 ovarian
[48] = system: LOX IMVI melanoma
[49] = system: HOP-62 NSCLC
[50] = system: NCI-H226 lung
[51] = system: HCT-15 colon
[52] = system: SW-620 colon
[53] = system: EKVX NSCLC
[54] = system: HOP-92 NSCLC
[55] = system: RPMI-8226 leukemia
[56] = system: OVCAR-3 ovarian
[57] = system: HCT-116 colon
[58] = system: RXF 393 renal
[59] = system: SR leukemia

Measured: TGI

COc1ccc(NC(=O)NS(=O)(=O)c2ccc(C)cc2)nn1
> 100 µM: [1] | [2] | [3] | [4] | [5] | [6] | [7] | [8] | [9] | [10] | [11] | [12] | [13] | [14] | [15] | [16] | [17] | [18] | [19] | [20] | [21] | [22] | [23] | [24] | [25] | [26] | [27] | [28] | [29] | [30] | [31] | [32] | [33] | [34] | [35] | [36] | [37] | [38] | [39] | [40] | [41] | [42] | [43] | [44] | [45] | [46] | [47] | [48] | [49] | [50] | [51] | [52] | [53] | [54] | [55] | [56]

O=C(O)C1CCC(=O)N1C(=O)C(Cl)c1ccccc1 (stereo not given)
> 100 µM: [1] | [2] | [3] | [4] | [5] | [6] | [7] | [8] | [9] | [10] | [11] | [12] | [13] | [15] | [16] | [17] | [18] | [19] | [20] | [57] | [21] | [22] | [23] | [24] | [25] | [26] | [27] | [28] | [29] | [30] | [31] | [32] | [33] | [34] | [35] | [36] | [37] | [38] | [39] | [40] | [41] | [42] | [43] | [44] | [45] | [46] | [47] | [48] | [49] | [50] | [51] | [52] | [53] | [54] | [55] | [56]

N#CC1C(=O)C(=O)N(c2ccccc2)C1=O (stereo not given)
> 100 µM: [1] | [58] | [2] | [3] | [4] | [5] | [6] | [8] | [9] | [11] | [12] | [13] | [14] | [16] | [17] | [18] | [19] | [20] | [57] | [21] | [22] | [23] | [24] | [25] | [26] | [27] | [28] | [29] | [30] | [31] | [32] | [33] | [35] | [36] | [37] | [38] | [39] | [40] | [41] | [42] | [44] | [45] | [46] | [47] | [48] | [49] | [50] | [51] | [52] | [53] | [54] | [55] | [56]

COC1(OC)CC2CCCCC2=C(C)N1S(=O)(=O)c1ccccc1 (stereo not given)
> 100 µM: [1] | [58] | [2] | [3] | [4] | [5] | [6] | [8] | [9] | [10] | [11] | [12] | [13] | [14] | [15] | [16] | [18] | [19] | [20] | [57] | [21] | [22] | [23] | [24] | [25] | [27] | [28] | [29] | [31] | [59] | [32] | [33] | [34] | [35] | [36] | [37] | [38] | [39] | [40] | [41] | [42] | [43] | [44] | [45] | [46] | [47] | [48] | [49] | [50] | [51] | [52] | [53] | [54] | [55] | [56]

Nc1ccc(C(=O)N/C(=C\C=C\c2ccco2)c2nc3c4c(ccc3[nH]2)C(=O)c2ccccc2C4=O)cc1
81.3 µM: [45]
> 100 µM: [1] | [2] | [3] | [4] | [5] | [8] | [9] | [11] | [12] | [14] | [16] | [17] | [18] | [19] | [20] | [57] | [21] | [22] | [23] | [24] | [25] | [26] | [27] | [28] | [29] | [30] | [31] | [34] | [35] | [36] | [37] | [39] | [40] | [41] | [42] | [46] | [47] | [48] | [49] | [51] | [52] | [53] | [54] | [55] | [56]
82 µM: [13] | [33]
55.6 µM: [7]
58.3 µM: [15]
95 µM: [58]
97 µM: [43]
78.6 µM: [32]
62.1 µM: [38]
17.9 µM: [6]

— PubChem BioAssay (NCI)
